# Experimental data reported in article PMC10057480, “Expanding the Library of 1,2,4-Oxadiazole Derivatives: Discovery of New Farnesoid X Receptor (FXR) Antagonists/Pregnane X Receptor (PXR) Agonists” (Molecules, 2023).
# Several values for one entry are separate records, joined by “and”; a condition that tells them apart may be missing. Identical values can stand only once.
# Assays:
# [1] = Metabolic stability in human liver S9 fraction; format: in vitro ADME; settings: pH 7.4, 1 μM compound, 37 °C
# Description: Human liver S9 fraction (Sigma-Aldrich, St. Louis, MO, USA) was used. All incubations were performed in duplicate in a thermoblock (Dlab dry bath HB 120-S) at 37 °C. The incubation mixtures contained 1 μM compound with 0.1% DMSO used as a vehicle, human liver S9 fraction (0.3 mg of protein per mL), 5 mM taurine, 5 mM glycine, 5 mM glucose 6-phosphate, 5 mM GSH, 1 mM NADPH, 1 mM ATP, 0.4 mM CoA, 0.4 mM UDPGA, 0.1 mM PAPS, and 0.4 U·mL^−1 glucose 6-phosphate dehydrogenase. All the cofactors were dissolved in a 50 mM potassium phosphate buffer (pH 7.4), containing 5 mM MgCl2, for a final volume of 0.25 mL. Aliquots of 25 µL were removed at 0, 5, 15, 30, 45, 60, and 90 min after S9 addition, and the reaction was stopped by adding 100 μL of ice-cold MeOH. The samples were centrifuged for 10 min at 10,000 rpm, and the supernatants were transferred into vials for LC-MS/MS analysis. The slope of the linear regression of the curve obtained by reporting the natural logarithm of compound area versus incubation time (−k) was used in the conversion to in vitro t1/2 values, calculated as t1/2 = −ln(2)/k. In vitro intrinsic clearance (Clint expressed as μL/min/mg) was obtained by first calculating V using the formula: V = volume of reaction (μL)/protein of liver microsomes (mg); intrinsic clearance was then calculated as: Clint = (V × ln2)/t1/2.
# FXR = biological target: T1, FXR (Homo sapiens, UniProt Q96RI1); assay: FXR luciferase reporter transactivation assay (antagonism) on HepG2 cells; format: cell-based; settings: at least three experiments; for FXR Antagonism Eff (%): HepG2 transactivation, compounds at 50 μM, percent inhibition of transactivation set at 100%, mean ± SD; for IC50: transactivation assay, concentration-response, mean ± SEM
# T1 construct: expressed in transfected cells; host or cells: HepG2
# T1 sequence (Q96RI1 1-486): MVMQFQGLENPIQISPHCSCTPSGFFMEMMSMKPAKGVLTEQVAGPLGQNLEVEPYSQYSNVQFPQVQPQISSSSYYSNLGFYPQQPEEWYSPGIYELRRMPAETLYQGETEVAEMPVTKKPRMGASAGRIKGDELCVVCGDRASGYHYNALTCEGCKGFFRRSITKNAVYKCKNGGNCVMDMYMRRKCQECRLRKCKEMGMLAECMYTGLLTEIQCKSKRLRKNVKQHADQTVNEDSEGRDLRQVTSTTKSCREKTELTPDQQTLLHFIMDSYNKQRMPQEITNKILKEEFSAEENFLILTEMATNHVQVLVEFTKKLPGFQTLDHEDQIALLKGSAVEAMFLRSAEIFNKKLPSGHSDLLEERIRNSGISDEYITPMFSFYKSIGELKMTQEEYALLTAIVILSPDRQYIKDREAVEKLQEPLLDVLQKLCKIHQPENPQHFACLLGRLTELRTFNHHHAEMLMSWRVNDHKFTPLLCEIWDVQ
# Description: The antagonistic activity on FXR was investigated using HepG2 cells transfected with 100 ng of pSG5-FXR and pSG5-RXR, 200 ng of the reporter vector p(hsp27)-TK-LUC containing the FXR response element, and 100 ng of the pGL4.70 vector encoding the human Renilla gene used as a transfection control. […] In another experimental setting, HepG2 cells were transfected using 100 ng of pSG5-PXR, 100 ng of pSG5-RXR, and 100 ng of pGL4.70, along with the reporter vector pGL3(henance)PXRE. At 24 h post-transfection, cells were stimulated with rifaximin 10 μM (as a positive control) or compounds 2–11 (10 μM). The specificity of compounds 5 and 11 versus FXR and PXR was tested using HepG2 cells transiently transfected with 200 ng of the reporter vector p(UAS)5XTKLuc, 100 ng of a vector containing the ligand binding domain of LXRα or LXRβand 100 ng of pGL4.70, a vector encoding the human Renilla gene. At 24 h post-transfection, cells were stimulated for 18 h with GW3965 (5 μM), compounds 5 and 11 (10 μM), and the combination of GW3965 plus 5 or 11 (50 μM). Cellular lysate was assayed for luciferase and Renilla activities after 18 h using the Dual-Luciferase Reporter assay system (E1980, Promega, Madison, WI, USA). The activity of luciferase was measured using the Glomax 20/20 luminometer (Promega, Madison, WI, USA) and normalized with Renilla activities.
# [2] = test system: Human-CaCo2 cells stimulated with TNFα; assay: qPCR of PXR and inflammatory cytokines in TNFα-stimulated CaCo2 cells; format: cell-based; settings: TNFα 100 ng/mL plus compound 10 μM
# Description: HepG2 and CaCo2 cell lines, obtained from ATCC, were routinely cultured in Eagle’s MEM and high-glucose DMEM, respectively, supplemented with 10% FBS, 1% glutamine, and penicillin/streptomycin. For in vitro experiments, HepG2 (2 × 106) cells were stimulated with 6-ECDCA at a concentration of 10 µM alone or in combination with compound 5 or 11, and CaCo2 cells were exposed to TNFα (100 ng/mL) alone or in combination with rifaximin, compound 5, or 11.
# Total RNA was isolated from the HepG2 and CaCo2 cell lines using TRI reagent (Zymo Research) and Direct-zol™ RNA MicroPrep w/Zymo-Spin™ IIC Columns (Zymo Research, Irvine, CA, USA). After purification from genomic DNA using DNase I (Thermo Fisher Scientific, Waltham, MA, USA), 2 μg of RNA from each sample was reverse transcribed using Kit FastGene Scriptase Basic (Nippon Genetics, Mariaweilerstraße, Düren, Germany) in 20-μL of reaction volume, and 50 ng of cDNA was amplified in a 20-μL solution containing 200 nM of each primer and 10 μL of PowerUp™ SYBR™ Green Master Mix (Thermo Fisher Scientific, Waltham, MA, USA) using a Quantstudio 3 system (Applied Biosystems, Foster City, CA, USA). The relative mRNA expression was calculated according to the ΔCt method. The primer used were as follows (forward and reverse): hGapdh (for […]; rev […]), hBsep (for […]; rev […]), hOstα (for […]; rev […]), hNtcp (for […]; rev […]), hPxr (for GCAAGGGCTTTTTCAGGAG; rev GGGTCTTCCGGGTGATCT), hIl-8 (for […]; rev […]), hIl-1β (for […]; rev […]).
half-life at 1 µM [1],microsomal CLint at 1 µM [1],FXR Antagonism Eff (%) (FXR),IC50 (FXR),Structure (SMILES),Effect on proinflammatory factors caused by TNFα stimulation [2]
1.15 h,33.7 µL/min/mg,66% and 66 ± 1%,8.4 ± 2 µM,"CCCCCN1CCC(c2nc(-c3ccc4ccccc4c3)no2)CC1 [Compound 5, 3-(Naphthalen-2-yl)-5-(1-pentylpiperidin-4-yl)-1,2,4-oxadiazole]",reduced changes in the production of proinflammatory factors
3.4 h,11.3 µL/min/mg,72% and 72 ± 6%,4.4 ± 0.4 µM,"OCc1ccc(CN2CCC(c3nc(-c4ccc5ccccc5c4)no3)CC2)cc1 [Compound 11, 5-[1-(4-(Hydroxymethyl)benzyl)piperidin-4-yl]-3-(naphthalen-2-yl)-1,2,4-oxadiazole]",reduced changes in the production of proinflammatory factors
